In the Kinase Knowledgebase extract (Sharma et al. 2016):
pIC50: −log10 of the molar value.

Molecular target: PIK3CD (Human) (UniProt O00329)
Assay: Enzyme Assay

PIK3CD (Human), sequence (O00329 whole entry, looked up): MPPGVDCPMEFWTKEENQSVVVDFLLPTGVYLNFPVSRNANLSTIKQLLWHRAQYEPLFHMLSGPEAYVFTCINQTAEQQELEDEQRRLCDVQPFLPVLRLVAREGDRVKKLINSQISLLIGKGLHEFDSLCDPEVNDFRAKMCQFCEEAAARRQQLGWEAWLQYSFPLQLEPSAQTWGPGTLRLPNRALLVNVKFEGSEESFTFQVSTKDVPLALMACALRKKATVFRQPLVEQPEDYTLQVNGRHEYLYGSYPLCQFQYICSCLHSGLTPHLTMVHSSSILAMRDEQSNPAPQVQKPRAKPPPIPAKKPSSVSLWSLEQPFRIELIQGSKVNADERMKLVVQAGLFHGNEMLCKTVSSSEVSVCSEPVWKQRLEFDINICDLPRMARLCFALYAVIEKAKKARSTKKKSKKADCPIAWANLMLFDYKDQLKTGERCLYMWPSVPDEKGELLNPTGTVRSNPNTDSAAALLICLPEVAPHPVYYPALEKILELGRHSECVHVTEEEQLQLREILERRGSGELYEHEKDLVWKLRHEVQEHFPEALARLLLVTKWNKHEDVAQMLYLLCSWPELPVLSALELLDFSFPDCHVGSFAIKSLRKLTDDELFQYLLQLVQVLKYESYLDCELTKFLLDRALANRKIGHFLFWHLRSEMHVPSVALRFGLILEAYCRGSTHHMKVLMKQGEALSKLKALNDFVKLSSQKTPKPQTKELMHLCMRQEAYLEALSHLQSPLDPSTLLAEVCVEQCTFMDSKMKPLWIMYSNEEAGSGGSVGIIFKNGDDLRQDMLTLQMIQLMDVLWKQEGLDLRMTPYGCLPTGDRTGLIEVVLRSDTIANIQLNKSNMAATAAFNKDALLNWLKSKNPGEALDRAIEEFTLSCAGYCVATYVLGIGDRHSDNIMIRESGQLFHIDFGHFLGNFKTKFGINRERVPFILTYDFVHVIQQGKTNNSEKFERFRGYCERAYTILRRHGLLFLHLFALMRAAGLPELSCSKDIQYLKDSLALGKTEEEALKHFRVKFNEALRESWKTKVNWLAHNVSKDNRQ

pIC50	SMILES
7.30 to 8.00	CC[C@H](Nc1nc(N)nc(N)c1C#N)c1nc2c(F)ccc(F)c2c(=O)n1-c1cc(F)cc(F)c1
7.30 to 8.00	COc1cc(-n2c([C@H](C)Nc3nc(N)nc(N)c3C#N)nc3cccc(Cl)c3c2=O)ccc1C
7.30 to 8.00	C[C@H](Nc1nc(N)nc(N)c1C#N)c1nc2c(C(F)F)cccc2c(=O)n1-c1ccccc1
7.30 to 8.00	CC[C@H](Nc1nc(N)nc(N)c1C#N)c1nc2cccc(F)c2c(=O)n1-c1cc(F)cc(C(F)F)c1
8.00 to 9.00	C[C@H](Nc1nc(N)nc(N)c1C#N)c1nc2cccc(Cl)c2c(=O)n1-c1cc(F)cc(OC(F)(F)F)c1
7.30 to 8.00	C[C@H](Nc1nc(N)nc(N)c1C#N)c1nc2cccc(F)c2c(=O)n1-c1cccc(C#N)c1
8.00 to 9.00	C[C@H](Nc1nc(N)nc(N)c1C#N)c1nc2c(C#N)cc(F)cc2c(=O)n1-c1cccc(F)c1
8.00 to 9.00	C[C@H](Nc1nc(N)nc(N)c1C#N)c1nc2cccc(Cl)c2c(=O)n1-c1cc(Cl)cc(Cl)c1
8.00 to 9.00	C[C@H](Nc1nc(N)nc(N)c1C#N)c1nc2ccc(F)cc2c(=O)n1-c1ccccc1
8.00 to 9.00	C[C@H](Nc1nc(N)nc(N)c1C#N)c1nc2c(F)cccc2c(=O)n1-c1ccccc1
≥ 9.00	Cc1cccc2nc([C@H](C)Nc3nc(N)nc(N)c3C#N)n(-c3cc(F)cc(F)c3)c(=O)c12
8.00 to 9.00	C[C@H](Nc1nc(N)nc(N)c1C#N)c1nc2cccc(Cl)c2c(=O)n1-c1c(F)cccc1F
8.00 to 9.00	C[C@H](Nc1nc(N)nc(N)c1C#N)c1nc2cccc(C#N)c2c(=O)n1-c1ccccc1
≥ 9.00	C[C@H](Nc1nc(N)nc(N)c1C#N)c1nc2c(F)ccc(Cl)c2c(=O)n1-c1cc(F)cc(F)c1
8.00 to 9.00	C[C@H](Nc1nc(N)nc(N)c1C#N)c1nc2cccc(S(C)(=O)=O)c2c(=O)n1-c1ccccc1
≥ 9.00	C[C@H](Nc1nc(N)nc(N)c1C#N)c1nc2cccc(Br)c2c(=O)n1-c1cccc(F)c1
8.00 to 9.00	COc1cc(C(F)F)cc(-n2c([C@H](C)Nc3nc(N)nc(N)c3C#N)nc3cccc(Cl)c3c2=O)c1
8.00 to 9.00	C[C@H](Nc1nc(N)nc(N)c1C#N)c1nc2c(F)ccc(Cl)c2c(=O)n1-c1cccc(C#N)c1
≥ 9.00	C[C@H](Nc1nc(N)nc(N)c1C#N)c1nc2c(Cl)ccc(Cl)c2c(=O)n1-c1ccccc1
≥ 9.00	C[C@H](Nc1nc(N)nc(N)c1C#N)c1nc2cccc(Cl)c2c(=O)n1-c1cc(F)cc(C(F)F)c1

pIC50	SMILES
8.00 to 9.00	C[C@H](Nc1nc(N)nc(N)c1C#N)c1nc2cccc(F)c2c(=O)n1-c1cccc(C(F)(F)F)c1
7.30 to 8.00	C[C@H](Nc1nc(N)nc(N)c1C#N)c1nc2cccc(C#N)c2c(=O)n1-c1cc(F)cc(C(F)F)c1
7.30 to 8.00	Cc1cccc2c(=O)n(-c3cccc(C(F)(F)F)c3)c([C@H](C)Nc3nc(N)nc(N)c3C#N)nc12
8.00 to 9.00	CC[C@H](Nc1nc(N)nc(N)c1C#N)c1nc2ccc(F)cc2c(=O)n1-c1cccc(F)c1
7.30 to 8.00	C[C@H](Nc1nc(N)nc(N)c1C#N)c1nc2ccccc2c(=O)n1-c1cc(F)cc(F)c1
8.00 to 9.00	C[C@H](Nc1nc(N)nc(N)c1C#N)c1nc2c(C#N)cccc2c(=O)n1-c1cc(F)cc(F)c1
8.00 to 9.00	C[C@H](Nc1nc(N)nc(N)c1C#N)c1nc2c(F)cccc2c(=O)n1-c1cc(F)cc(F)c1
7.30 to 8.00	CC[C@H](Nc1nc(N)nc(N)c1C#N)c1nc2c(Cl)cccc2c(=O)n1-c1cc(F)cc(F)c1
≥ 9.00	Cc1ccc(F)c2nc([C@H](C)Nc3nc(N)nc(N)c3C#N)n(-c3ccccc3)c(=O)c12
7.30 to 8.00	C[C@H](Nc1nc(N)nc(N)c1C#N)c1nc2c(F)ccc(C#N)c2c(=O)n1-c1cc(F)cc(F)c1
8.00 to 9.00	COc1cc(OC)cc(-n2c([C@H](C)Nc3nc(N)nc(N)c3C#N)nc3cccc(Cl)c3c2=O)c1
8.00 to 9.00	C[C@H](Nc1nc(N)nc(N)c1C#N)c1nc2cccc(F)c2c(=O)n1-c1cccc(CC(F)F)c1
7.30 to 8.00	CC[C@H](Nc1nc(N)nc(N)c1C#N)c1nc2cccc(F)c2c(=O)n1-c1cccc(C(F)(F)F)c1
8.00 to 9.00	C[C@H](Nc1nc(N)nc(N)c1C#N)c1nc2c(Cl)cccc2c(=O)n1-c1cc(F)cc(F)c1
8.00 to 9.00	C[C@H](Nc1nc(N)nc(N)c1C#N)c1nc2cccc(F)c2c(=O)n1-c1cc(F)cc(F)c1
8.00 to 9.00	Cc1ccc(F)c2c(=O)n(-c3ccccc3)c([C@H](C)Nc3nc(N)nc(N)c3C#N)nc12
≥ 9.00	C[C@H](Nc1nc(N)nc(N)c1C#N)c1nc2cccc(Br)c2c(=O)n1-c1ccccc1
8.00 to 9.00	C[C@H](Nc1nc(N)nc(N)c1Cl)c1nc2cccc(S(C)(=O)=O)c2c(=O)n1-c1cccc(F)c1
8.00 to 9.00	Cc1ccc(F)c2nc([C@H](C)Nc3nc(N)nc(N)c3C#N)n(-c3cc(F)cc(C#N)c3)c(=O)c12
8.00 to 9.00	CC[C@H](Nc1nc(N)nc(N)c1C#N)c1nc2c(F)cccc2c(=O)n1-c1cc(F)cc(F)c1

pIC50	SMILES
8.00 to 9.00	C[C@H](Nc1nc(N)nc(N)c1C#N)c1nc2cccc(Cl)c2c(=O)n1-c1cc(F)cc(C(F)(F)F)c1
8.00 to 9.00	C[C@H](Nc1nc(N)nc(N)c1C#N)c1nc2cccc(Cl)c2c(=O)n1-c1cc(F)cc(Cl)c1
8.00 to 9.00	C[C@H](Nc1nc(N)nc(N)c1C#N)c1nc2cccc(Cl)c2c(=O)n1-c1cccc(CC(F)F)c1
≥ 9.00	COc1cccc(-n2c([C@H](C)Nc3nc(N)nc(N)c3C#N)nc3cccc(Cl)c3c2=O)c1
7.30 to 8.00	C[C@H](Nc1nc(N)nc(N)c1C#N)c1nc2cccc(F)c2c(=O)n1-c1cc(F)cc(C(F)F)c1
8.00 to 9.00	C[C@H](Nc1nc(N)nc(N)c1C#N)c1nc2c(Cl)cc(F)cc2c(=O)n1-c1cc(F)cc(F)c1
8.00 to 9.00	C[C@H](Nc1nc(N)nc(N)c1C(N)=O)c1nc2cccc(Cl)c2c(=O)n1-c1cc(F)cc(F)c1
7.30 to 8.00	CC[C@H](Nc1nc(N)nc(N)c1C#N)c1nc2c(C)ccc(F)c2c(=O)n1-c1cc(F)cc(F)c1
7.30 to 8.00	CC[C@H](Nc1nc(N)nc(N)c1C#N)c1nc2c(C)cccc2c(=O)n1-c1cc(F)cc(F)c1
8.00 to 9.00	C[C@H](Nc1nc(N)nc(N)c1C#N)c1nc2c(F)ccc(F)c2c(=O)n1-c1cc(F)cc(F)c1
8.00 to 9.00	C[C@H](Nc1nc(N)nc(N)c1C#N)c1nc2cccc(F)c2c(=O)n1-c1cccc(C(F)F)c1
≥ 9.00	CC[C@H](Nc1nc(N)nc(N)c1C#N)c1nc2cccc(C)c2c(=O)n1-c1cc(F)cc(F)c1
7.30 to 8.00	C[C@H](Nc1nc(N)nc(N)c1C#N)c1nc2c(C(F)F)cccc2c(=O)n1-c1cc(F)cc(F)c1
7.30 to 8.00	C[C@H](Nc1nc(N)nc(N)c1C#N)c1nc2c(F)ccc(F)c2c(=O)n1-c1cccc(C#N)c1
8.00 to 9.00	CC[C@H](Nc1nc(N)nc(N)c1C#N)c1nc2c(F)ccc(F)c2c(=O)n1-c1cccc(F)c1
≥ 9.00	Cc1ccc(F)c2nc([C@H](C)Nc3nc(N)nc(N)c3C#N)n(-c3cc(F)cc(F)c3)c(=O)c12
8.00 to 9.00	C[C@H](Nc1nc(N)nc(N)c1C#N)c1nc2cccc(Cl)c2c(=O)n1-c1cc(F)cc(C#N)c1
8.00 to 9.00	C[C@H](Nc1nc(N)nc(N)c1Cl)c1nc2c(F)ccc(Cl)c2c(=O)n1-c1ccccc1
8.00 to 9.00	C[C@H](Nc1nc(N)nc(N)c1C#N)c1nc2c(C#N)cccc2c(=O)n1-c1ccccc1

SMILES	pIC50
C[C@H](Nc1nc(N)nc(N)c1Cl)c1nc2cccc(Cl)c2c(=O)n1-c1ccccc1	≥ 9.00
C[C@H](Nc1ncnc(N)c1C#N)c1nc2cccc(Cl)c2c(=O)n1-c1ccccc1	≥ 9.00
